Measured values: patent US8481678B2, “Peptide-based tooth whitening reagents” (E I du Pont de Nemours and Company, priority 2009, dated 2013)

Tested on: pellicle-coated bovine enamel
Assay: Phage ELISA on pellicle-coated bovine enamel, candidates from brushed 8 hr pellicle, Example 17
Type: binding, human
Settings: phage ELISA screened with 30 min in vivo pellicle; normalized to DenP3; no-phage control 0.094
Protocol: A total of 18 selected phage candidates were used in a phage ELISA Experiment. Purified phage lysates were used for binding to pellicle-coated bovine enamel using an anti-M13 phage antibody conjugated to horseradish-peroxidase, followed by the addition of chromogenic agent TMB, obtained from Pierce Biotechnology (Rockford, Ill.). The plates were read at A450nm.
The wells were rinsed 2 times with wash buffer consisting of PBST. The wells were filled with 1 mL of […] purified phage stock which was prepared by diluting in blocking buffer. […] The non-binding phage was removed by washing 5 times with PBST. Then, 500 μL of horseradish peroxidase/anti-M13 antibody conjugate (Amersham USA, Piscataway, N.J.), diluted 1:500 in the blocking buffer, was added and incubated for 45 min at room temperature. The conjugate solution was removed and was washed 5 times with PBST.

First: FPSKWYNHHRHITGHV [DenP112]
Second: AIEYQHSATTPWTMRTRLPP [DenP101]
The “O.D. at 450 nm (normalized)” value of the first is lower: 0.413 for the first, 0.467 for the second.

Going from QFNQTSHSFMHGTSGYVPGK [DenP105] to GINKGQRPPWESWHEN [DenP114], the “O.D. at 450 nm (normalized)” value rises from 0.470 to 0.703.

Going from NLHSPWPSHAAHHWST [DenP118] to HDHLSWWGQFDRQNLL [DenP116], the “O.D. at 450 nm (normalized)” value rises from 0.641 to 1.055.

First: SFSWHRGDWELGHQSKTMGM [DenP106]
Second: GGMGALESYRQWNHLA [DenP113]
The “O.D. at 450 nm (normalized)” value of the first is higher: 1.524 for the first, 1.348 for the second.

Compared with SMWHDITKRYRNPSEMVSAY [DenP107], GYGQYVSQQTWAHSNK [DenP115] is lower in “O.D. at 450 nm (normalized)” value: 0.726 for the first, 0.501 for the second.

Going from NQQMKLVPQHWHRAQP [DenP119] to EFYPFAEVPPEKSGIGRQVF [DenP102], the “O.D. at 450 nm (normalized)” value falls from 1.051 to 0.520.

Going from MPGHQESIKVQNWNRV [DenP117] to GVHQYSRPTVPSYLWTSGQH [DenP103], the “O.D. at 450 nm (normalized)” value rises from 0.433 to 0.879.

First: DGYKLQTSLDWQMWNP [DenP111]
Second: GYQPHYVDHTIGWQPMIRPN [DenP104]
The “O.D. at 450 nm (normalized)” value of the first is higher: 1.051 for the first, 0.790 for the second.

WHEPHQFSGENTDYSSSMGT [DenP109] was tested, and the “O.D. at 450 nm (normalized)” value was 0.716.
